Nine compounds from patent US8993564B2, “7-azaindole derivatives suitable for treatment of cancers” (Merck Patent GmbH, priority 2011, dated 2015) can be followed below.

As a reminder, the melting point is the temperature of the solid-liquid transition.

System in the first series: not given
Experiment: not given
Details: not given
Consider `Cn1cc(-c2cnc3[nH]cc(-c4nnc(Nc5ccccc5F)o4)c3c2)cn1` [Compound 60], for which the melting point fell in the range of 295 to 297 °C.
The compound `CCOc1ccccc1Nc1nnc(-c2c[nH]c3ncc(-c4cnn(C)c4)cc23)o1` [Compound 62, (2-Ethoxyphenyl)-{5-[5-(1-methyl-1H-pyrazol-4-yl)-1H-pyrrolo[2,3-b]-pyridin-3-yl]-1,3,4-oxadiazol-2-yl}-amine] gave a melting point of 274 to 275 °C.
On the same count and under the same terms, under `Cn1cc(-c2cnc3[nH]cc(-c4nnc(NCc5ccc6c(c5)OCO6)o4)c3c2)cn1` [Compound 82, Benzo-1,3-dioxol-5-ylmethyl-{5-[5-(1-methyl-1H-pyrazol-4-yl)-1H-pyrrolo[2,3-b]pyridin-3-yl]-1,3,4-oxadiazol-2-yl}amine] stands 281 to 283 °C; under `COc1ccccc1CNc1nnc(-c2c[nH]c3ncc(-c4cnn(C)c4)cc23)o1` [Compound 63, (2-Methoxybenzyl)-{5-[5-(1-methyl-1H-pyrazol-4-yl)-1H-pyrrolo[2,3-b]-pyridin-3-yl]-1,3,4-oxadiazol-2-yl}-amine], 253 to 254 °C; under `Cn1cc(-c2cnc3[nH]cc(-c4nnc(Nc5ccccc5)o4)c3c2)cn1` [Compound 75, {5-[5-(1-Methyl-1H-pyrazol-4-yl)-1H-pyrrolo[2,3-b]pyridin-3-yl]-1,3,4-oxadiazol-2-yl}phenylamine], 324 to 326 °C.

The next series has as its target T1, PDK1 (Homo sapiens, UniProt O15530).
T1 construct: His6 (N)
T1 sequence (O15530 51-556 limits assumed): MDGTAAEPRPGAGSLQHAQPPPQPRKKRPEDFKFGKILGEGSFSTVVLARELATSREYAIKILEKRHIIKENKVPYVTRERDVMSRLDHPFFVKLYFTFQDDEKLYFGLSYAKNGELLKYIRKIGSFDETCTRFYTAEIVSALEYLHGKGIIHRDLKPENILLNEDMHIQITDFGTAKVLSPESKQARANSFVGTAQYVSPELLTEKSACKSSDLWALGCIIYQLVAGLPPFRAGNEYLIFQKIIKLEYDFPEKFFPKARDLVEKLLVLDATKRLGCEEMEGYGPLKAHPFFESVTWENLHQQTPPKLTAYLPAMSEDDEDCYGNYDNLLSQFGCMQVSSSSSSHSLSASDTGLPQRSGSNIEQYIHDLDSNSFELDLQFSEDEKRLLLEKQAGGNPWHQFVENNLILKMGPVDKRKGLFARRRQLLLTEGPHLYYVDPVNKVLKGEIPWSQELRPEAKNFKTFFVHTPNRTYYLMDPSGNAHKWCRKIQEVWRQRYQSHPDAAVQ
Briefly: Test for the inhibition of PDK1 (flashplate, 33P-ATP), enzymatic. The conditions noted are these: prior art compounds vs compounds according to the invention. Type of series: biochemical. The method, then: 4.0 Test for the Inhibition of PDK1
The experimental batches are carried out in a flashplate system with 384 wells/microtitration plate.
In each case, the PDK1 sample His6-PDK1(1-50)(3.4 nM), the PDK1 substrate biotin-bA-bA-[…] (400 nM), 4 μM ATP (with 0.2 μCi of ^33P-ATP/well) and the test substance in 50 μl of conventional experimental solution per well are incubated at 30° C. for 60 min. The test substances are employed in corresponding concentrations (if desired in a dilution series). The control is carried out without test substance. The reaction is stopped using standard methods and washed. The activity of the kinase is measured via the incorporated radioactivity in top count. In order to determine the non-specific kinase reaction (blank value), the experimental batches are carried out in the presence of 100 nM staurosporine.
The radioactivity (decompositions per minute) of the blank value (no use of test substance in the presence of staurosporine) is subtracted from all other radioactivity values. The controls (kinase activity without test substance) are set equal to 100 percent and all other radioactivity values (after subtracting the blank value) are expressed set in relation thereto (for example in % of the control).
IC50 values (50% inhibition) are determined with the aid of statistics programmes, such as, for example, RS1.
For `COc1cccc(CNc2nnc(-c3c[nH]c4ncccc34)o2)c1` [Compound 95, (3-Methoxybenzyl)-[5-(1H-pyrrolo-[2,3-b]pyridin-3-yl)-1,3,4-oxadiazol-2-yl]amine], the “inhibition of PDK1 (enzymatic), activity compared with the compounds according to the invention” value is “lower activity”.
On the same count and under the same terms, under `COc1cc(Nc2nnc(-c3c[nH]c4ncccc34)o2)cc(OC)c1` [Compound 89, (3,5-Dimethoxyphenyl)-[5-(1H-pyrrolo[2,3-b]pyridin-3-yl)-1,3,4-oxadiazol-2-yl]amine] stands “lower activity”; under `c1cncc(CNc2nnc(-c3c[nH]c4ncccc34)o2)c1` [Compound 88, Pyridin-3-ylmethyl-[5-(1H-pyrrolo-[2,3-b]pyridin-3-yl)-1,3,4-oxadiazol-2-yl]amine], “lower activity”; under `COc1cccc(CNc2nnc(-c3c[nH]c4ncc(-c5cn[nH]c5)cc34)o2)c1` [Compound 90, (3-Methoxybenzyl)-{5-[5-(1H-pyrazol-4-yl)-1H-pyrrolo [2,3-b]pyridin-3-yl]-1,3,4-oxadiazol-2-yl}amine], “lower activity”.
